Data reported in US20230151326A1, “Simplified Compositions and Methods for Generating Neural Stem Cells from Human Pluripotent Stem Cells” (Wisconsin Alumni Research Foundation, priority 2012, published 2023).

Test system: H9 hESCs
Experiment: Flow cytometry of neural markers in H9 hESCs differentiated in neural differentiation media
Assay type: cell-based, human
Details: day 9, E6 medium containing 1 μM RA
Experimental: hPSCs were washed once with phosphate-buffered saline (PBS; Invitrogen), incubated with Accutase® (Invitrogen) for 3 min, and collected by centrifugation. hPSCs were then plated onto Matrigel® or VTN-NC at a density of 2×10^5 cells/cm^2 in E8 medium containing 10 μM ROCK inhibitor and cultured overnight. The following morning, cells were changed to E6 medium, E6 containing 10 μM SB431542 (Cellagentech), or E6 containing 10 μM SB431542 and 200 ng/mL recombinant human noggin (R&D Systems) to initiate differentiation. E6 medium is the same formulation as E8 medium but without FGF2 and TGFβ1. Medium was changed every day until cells were utilized for analysis. […]
Cells were harvested from 6- or 12-well plates by washing once with PBS and incubating with Accutase® for 3-5 min. […] After washing twice with PBS containing 0.75% BSA, cells were analyzed on a FACSCanto™ (BD Biosciences) and resultant data were analyzed using Cyflogic software. Positive events were determined by gating the top 1% of the IgG control histograms, and all flow data presented are from biological replicates.
H9 hESCs were seeded at 2×10^5 cells/cm^2 on Matrigel® in E8 medium plus ROCK inhibitor as described above. […] Also, the morphological characteristics of the cells at day 6 were assessed by bright field microscopy. […]

In the case of CC1=C(/C=C/C(C)=C/C=C/C(C)=C/C(=O)O)C(C)(C)CCC1 [retinoic acid], the “SOX1 expression by flow cytometry” value is reported as “up to 62±16%”.
